Experimental data: patent US7531500B2, “Preventing airway mucus production by administration of EGF-R antagonists” (The Regents of the University of California, priority 1998, dated 2009)

Tests used:
pathogen-free rats [1] = assay: Agarose plug-induced goblet cell metaplasia in pathogen-free rats; assay type: in vivo, rat
Experimental: Protocol of experiments. We studied pathogen-free rats, because they normally have few goblet cells in airways. The animals were anesthetized with methohexital sodium (Brevital, 25 mg/kg, i.p.). The trachea was exposed aseptically with a midline cervical incision, and agarose plugs were instilled into a bronchus via a 20 gauge Angiocath (Becton Dikinson, Sandy, Utah) connected to polyethylene tubing (PE 90, internal diameter 0.86 mm and outer diameter 1.27 mm, Clay Adams, Parsippany, N.Y.) threaded into the incised trachea. The polyethylene tube was bent at a 30° angle to allow selective instillation into the right bronchus. After instillation, the incision was closed with a suture.
To evaluate the role of EGF-R on agarose plug-induced goblet cell metaplasia, animals were treated with BIBX1522 (80 mg/kg, i.p.) 1 h before instillation of the agarose plugs and repeated daily (40 mg/kg, i.p., bid). Animals were euthanized 24, 48 or 72 h after instillation of the agarose plugs.
The first treatment (100 μl in 0.2 ml saline, i.p.) was given 1 h before the instillation of agarose plugs, and i.p. injections were repeated daily.
To study the effect of neutrophils on agarose plug-induced goblet cell metaplasia, rats were pretreated with cyclophosphamide (an inhibitor of bone marrow leukocytes) or with a combination of cyclophosphamide plus NPC 15669. Cyclophosphnamide (100 mg/kg, i.p.) was given 5 d before instillation of agarose plugs, and a second injection of cyclophosphamide (50 mg/kg, i.p.) was given 1 d before instillation of plugs. In studies with NPC 15669, the drug (10 mg/kg, i.p.) was injected 1 h before instillation of agarose plugs, and then daily for 3 d thereafter.
Tissue preparation. At various times after agarose plug instillation, rats were anesthetized with sodium pentobarbital (65 mg/kg, i.p.), the systemic circulation was perfused with 1% paraformaldehyde in diethyl pyrocarbonate-treated PBS at a pressure of 120 mmHg. The right lung was removed, and the right caudal lobe was used for histology. For frozen sections, tissues were removed and placed in 4% paraformaldehyde for 1 h and then replaced in 30% sucrose for cryoprotection overnight. The tissues were embedded in O.C.T. compound (Sakura Finetek U.S.A., Inc., Torrance, Calif.). For methacrylate sections, the tissues were placed in 4% paraformaidehyde for 24 h and then dehydrated with graded concentrations of ethanol and embedded in methacrylate JB-4 (Polysciences, Inc., Warrington, Pa.). Tissue sections (4 μm thick) were stained with Alcian blue/PAS and counterstained with hematoxylin.
Morphoometric analysis of bronchial epithelium. The percentage of Alcian blue/PAS-stained area of mucous glycoconjugates in the epithelium was determined using a semi-automatic image analysis system according to previously published methods. The area of epithelium and Alcian blue/PAS-stained mucous conjugates within the epithelium was manually circumscribed and analyzed using the NIH Image program (developed at the U.S. National Institutes of health and available from the internet by ananymous FTP or from a floppy disk from the National Technical Information Service, Springfield, Va.; part number PB95-500195GEI). The data are expressed as the percentage of the total epithelial area occupied by Alcian blue/PAS stain. […] The percentage of denuded epithelium was determined by calculating the ratio of the length of denuded epithelium to the total epithelial length.
Identification of cell types in methacrylate sections and cell analysis. The total number of epithelial cells was determined by counting epithelial cell nuclei over 2 mm of the basal lamina with an oil immersion objective lens (×1000 magnification). The linear length of the basal lamina under each analyzed region of epithelium was determined by tracing the contour of the digitalized image of the basal lamina. The epithelia; cells were identified as described previously.

pathogen-free rats [2] = assay: IL-13-induced goblet cell metaplasia in rat airways; assay type: in vivo; conditions: pretreatment
Experimental: Animals were anesthetized with pentobarbital [Nembutal sodium, 50 mg/kg, intraperitoneally (ip), Abbott Laboratories, North Chicago, Ill.] and allowed to breathe spontaneously. Vehicle (phosphate buffer solution, PBS) or IL-13 was instilled intratracheally via a 20-gauge Angiocath catheter (Beckton Dickinson, Sandy, Utah) through the mouth, while the laryngeal area was visualized using a high-intensity illuminator (FiberLite; Dolan Jenner Industries, Inc., Lawrence, Mass.). The […] tissues were examined 48 hours after instillation of IL-13. Various concentrations of IL-13 (recombinant murine IL-13; 5, 50, 100, and 500 ng/rat, R&D systems, Minneapolis, Minn.) were instilled into the trachea in […]. Sterile PBS (200 μl) was instilled into the trachea as controls. For examination of the relationship between IL-13-induced GC metaplasia and activation of EGFR, animals were pretreated 1 d before instillation of IL-13 and daily thereafter with a selective EGFR tyrosine kinase inhibitor (BIBX 1522; 1-30 mg/kg/day, ip; Boehringer Ingelheim, Ingelheim, Germany). Animals were euthanized 48 hours after instillation of IL-13. In preliminary studies, we noted that IL-13 causes leukocyte recruitment into the airways. We hypothesized that leukocyte recruitment results from IL-13-induced chemoattractant release from epithelium, and that this recruitment is involved in the IL-13-induced EGFR cascade leading to GC metaplasia. Groups of animals were euthanized 4, 8, 16, 24, and 48 hours after instillation of IL-13 (500 ng), and leukocytes were counted in airway tissue. […] Sigma chemical Co., St Louis, Mo.] or with a blocking antibody to interleukin-8 (IL-BAb; rabbit anti-human IL-8 antibody; Biosource, Camarillo, Calif.). […] In another series of studies, we instilled IL-8 Ab (10 μg/rat) intratracheally, along with IL-13; we repeated the instillation of anti-human IL-8 blocking antibody at 12 hour intervals until the animals were euthanized. Animals were euthanized with a lethal dose of pentobarbital (Nembutal sodium, 200 mg/kg, ip, Abbott Laboratories, North Chicago, Ill.), and the systemic circulation was perfused with 1% paraformaldehyde in Diethylpyrocarbonate (DEPC, Sigma chemical Co., St Louis, Mo.)-treated PBS via the left ventricle. For frozen sections, […] tissues were removed, placed in 4% paraformaldehyde overnight, and then placed in 30% sucrose for cryoprotection. The tissues were embedded in optimal cutting temperature (OCT, […]., Inc., Torrance, Calif.) compound. For plastic or paraffin sections, tissues were placed in 4% paraformaldehyde overnight, dehydrated with ethanol, and embedded in JB-4 plus monomer solution A (Polysclences, Inc., Warrington, Pa.) or in paraffin. The embedded tissues were cut as cross sections 4 μm thick and placed on glass slides. In all studies, the carina was examined to obtain consistent sampling. We measured AB/PAS-positive areas and total epithelial area, and we expressed the results as the percentage of AB/PAS area to total epithelial area. The analysis was performed with the public domain NIH IMAGE program (developed at the U.S. National Institutes of Health and available by anonymous FTP from zippy.nimh.gov. or floppy disk from the National Technical Information Service, Springfield, Va., part number PB95-500195GEI). […] For immunohistochemical localization of […], we used mouse anti-human IL-8 antibody (1:20; Biosource, Camarillo, Calif.). The sections were then incubated with biotinylated horse anti-mouse IgG (Vector Laboratories, Burlingame, Calif.) at 1:200 dilution for 1 hour at room temperature. Bound antibody was visualized according to standard protocols for avidin-biotin-peroxidase complex method. The measurement of MUC5AC protein also utilized the same method used for quantitative measurement of GC metaplasia in the epithelium. Animals were euthanized 4, 8, 16, 24, and 48 hours after instillation of IL-13 (500 ng), and leukocytes were counted in airway tissue. […]

O=P1(N(CCCl)CCCl)NCCCO1 (stereo not shown) [cyclophosphamide]
neutrophil count in venous blood (pathogen-free rats [1]; after cyclophosphamide 100 mg/kg then 50 mg/kg i.p., n=5): 1.8±0.5% | agarose plug-induced EGF-R protein expression (pathogen-free rats [1]; rat, in vivo): inhibited | agarose plug-induced goblet cell metaplasia (Alcian blue/PAS-positively stained cells) (pathogen-free rats [1]; rat, in vivo): inhibited | macrophage recruitment after agarose plugs (pathogen-free rats [1]; rat, in vivo): did not inhibit | plug-induced neutrophil recruitment in BAL (pathogen-free rats [1]; rat, in vivo): inhibited | number of neutrophils in the airway lumen (pathogen-free rats [1]; treated rats with plugs, 24 h): 2.6±0.3 /mm of basal lamina | number of neutrophils in the epithelium (pathogen-free rats [1]; treated rats with plugs, 24 h): 0.8±0.2 /mm | IL-13-induced TNFα expression (pathogen-free rats [2]): prevented | IL-13-induced leukocyte recruitment into airways (pathogen-free rats [2]): inhibited | IL-13-induced mucin production (pathogen-free rats [2]): prevented
